ChEMBL document CHEMBL1201862, “PubChem BioAssay data set” (2004)
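Tested at 5 concentrations; 48 h exposure; 96-well plates; endpoints linearly interpolated, else capped at highest concentration. GI50 is the concentration that inhibits growth by half.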 Activity calls are given as the source filed them. Cut-off read from the data, not from the text of the source: active = GI50 up to about 1.1 µM and inactive = higher.

Assays:
Assay in all cases: inhibition of tumour cell growth, NCI panel, 48 h
IGROV-1 = tested on: IGROV-1
NCI/ADR-RES = tested on: NCI/ADR-RES
SNB-75 = tested on: SNB-75
CCRF-CEM = tested on: CCRF-CEM
SNB-19 = tested on: SNB-19
TK-10 = tested on: TK-10
NCI-H522 = tested on: NCI-H522
HOP-62 = tested on: HOP-62
SN12C = tested on: SN12C
HCT-116 = tested on: HCT-116
U-251 = tested on: U-251
HT-29 = tested on: HT-29
SK-MEL-28 = tested on: SK-MEL-28
NCI-H23 = tested on: NCI-H23
LOX IMVI = tested on: LOX IMVI
A549 = tested on: A549
A498 = tested on: A498
MDA-N = tested on: MDA-N
OVCAR-8 = tested on: OVCAR-8
BT-549 = tested on: BT-549

| Structure (SMILES) | GI50 (IGROV-1) | GI50 (NCI/ADR-RES) | GI50 (SNB-75) | GI50 (CCRF-CEM) | GI50 (SNB-19) | GI50 (TK-10) | GI50 (NCI-H522) | GI50 (HOP-62) | GI50 (SN12C) | GI50 (HCT-116) | GI50 (U-251) | GI50 (HT-29) | GI50 (SK-MEL-28) | GI50 (NCI-H23) | GI50 (LOX IMVI) | GI50 (A549) | GI50 (A498) | GI50 (MDA-N) | GI50 (OVCAR-8) | GI50 (BT-549) |
| --- | --- | --- | --- | --- | --- | --- | --- | --- | --- | --- | --- | --- | --- | --- | --- | --- | --- | --- | --- | --- |
| COc1cc(C(c2cc3c(cc2O)OCO3)N2CCCC2)cc(OC)c1OC (stereo unspecified) | 12.4 µM (inactive) | 17.3 µM (inactive) | 16.2 µM (inactive) | 1.79 µM (inactive) | 19.3 µM (inactive) | 20.2 µM (inactive) | 3.35 µM (inactive) | 30.5 µM (inactive) | 12.2 µM (inactive) | 15.4 µM (inactive) | 16.9 µM (inactive) | 10.4 µM (inactive) | 23.3 µM (inactive) | 17.5 µM (inactive) | 14.6 µM (inactive) | 20.4 µM (inactive) | 21.4 µM (inactive) | 13.4 µM (inactive) | 16.1 µM (inactive) | – |
| CN1c2ccccc2C(=O)NC12CCN(Cc1ccccc1)CC2 | 69.2 µM (inactive) | > 100 µM (inactive) | 75 µM (inactive) | 35.6 µM (inactive) | 27.5 µM (inactive) | 41 µM (inactive) | – | 54.7 µM (inactive) | 49.4 µM (inactive) | 44.9 µM (inactive) | 40.1 µM (inactive) | 27.6 µM (inactive) | 73.8 µM (inactive) | > 100 µM (inactive) | 46 µM (inactive) | 56.9 µM (inactive) | 57.1 µM (inactive) | – | 69.2 µM (inactive) | – |
| O[C@@H]1C[C@@H]2N[C@@](O)(C[C@@H]2O)[C@H]1O | > 100 µM (inactive) | > 100 µM (inactive) | 84.3 µM (inactive) | > 100 µM (inactive) | > 100 µM (inactive) | > 100 µM (inactive) | > 100 µM (inactive) | > 100 µM (inactive) | > 100 µM (inactive) | > 100 µM (inactive) | > 100 µM (inactive) | > 100 µM (inactive) | > 100 µM (inactive) | > 100 µM (inactive) | > 100 µM (inactive) | > 100 µM (inactive) | > 100 µM (inactive) | > 100 µM (inactive) | > 100 µM (inactive) | – |
| CC1CCP(=O)(c2ccccc2)c2ccccc21 (stereo unspecified) | > 100 µM (inactive) | – | > 100 µM (inactive) | 37.7 µM (inactive) | > 100 µM (inactive) | > 100 µM (inactive) | 43.6 µM (inactive) | 78.7 µM (inactive) | 26.2 µM (inactive) | 23 µM (inactive) | 24.1 µM (inactive) | > 100 µM (inactive) | > 100 µM (inactive) | > 100 µM (inactive) | 24.3 µM (inactive) | > 100 µM (inactive) | > 100 µM (inactive) | – | 41.6 µM (inactive) | – |
| CCCN(CCC)C(=O)c1c(N2CCN(C)CC2)c2cccnc2n2c(C)cnc12 | > 100 µM (inactive) | > 100 µM (inactive) | > 100 µM (inactive) | > 100 µM (inactive) | 27.5 µM (inactive) | > 100 µM (inactive) | 33.1 µM (inactive) | > 100 µM (inactive) | > 100 µM (inactive) | > 100 µM (inactive) | > 100 µM (inactive) | > 100 µM (inactive) | > 100 µM (inactive) | > 100 µM (inactive) | > 100 µM (inactive) | > 100 µM (inactive) | 78.5 µM (inactive) | > 100 µM (inactive) | > 100 µM (inactive) | – |
| O=C1CCCCCCCCCCC1CCCCCBr (stereo unspecified) | 20.1 µM (inactive) | 21.7 µM (inactive) | 16.3 µM (inactive) | 17 µM (inactive) | 25.8 µM (inactive) | 44 µM (inactive) | 19.6 µM (inactive) | 29.2 µM (inactive) | 22.3 µM (inactive) | 17 µM (inactive) | 20 µM (inactive) | 25.9 µM (inactive) | 19.9 µM (inactive) | 24.4 µM (inactive) | 19 µM (inactive) | 29.4 µM (inactive) | 14.4 µM (inactive) | 31.8 µM (inactive) | 31.8 µM (inactive) | – |
| Cc1cc(Cl)cc2c1NC(=O)/C2=N\Nc1ccccc1[N+](=O)[O-] | 19.1 µM (inactive) | – | > 100 µM (inactive) | 21.1 µM (inactive) | > 100 µM (inactive) | > 100 µM (inactive) | > 100 µM (inactive) | 50.5 µM (inactive) | > 100 µM (inactive) | > 100 µM (inactive) | > 100 µM (inactive) | – | > 100 µM (inactive) | 40.5 µM (inactive) | 84.7 µM (inactive) | > 100 µM (inactive) | > 100 µM (inactive) | > 100 µM (inactive) | – | > 100 µM (inactive) |
| O=S(=O)(Nc1nc2ccccc2nc1Nc1cccc2ccccc12)c1ccccc1 | 5.9 µM (inactive) | 13.6 µM (inactive) | 15.5 µM (inactive) | – | 20.1 µM (inactive) | 8.93 µM (inactive) | – | 13.9 µM (inactive) | > 100 µM (inactive) | 17.7 µM (inactive) | 5.52 µM (inactive) | – | 25.9 µM (inactive) | 5.53 µM (inactive) | > 100 µM (inactive) | 7.35 µM (inactive) | – | > 100 µM (inactive) | 20.7 µM (inactive) | 10.4 µM (inactive) |
| CC1(C)C(CCO)CC1n1cc(I)c(=O)[nH]c1=O (stereo unspecified) | – | > 100 µM (inactive) | > 100 µM (inactive) | > 100 µM (inactive) | > 100 µM (inactive) | > 100 µM (inactive) | – | > 100 µM (inactive) | > 100 µM (inactive) | > 100 µM (inactive) | 75.3 µM (inactive) | – | > 100 µM (inactive) | – | > 100 µM (inactive) | > 100 µM (inactive) | > 100 µM (inactive) | > 100 µM (inactive) | – | – |
| O=S(=O)([C-]([I+]c1ccccc1)S(=O)(=O)C(F)(F)C(F)(F)C(F)(F)C(F)(F)F)C(F)(F)C(F)(F)C(F)(F)C(F)(F)F | 19.1 µM (inactive) | 24.3 µM (inactive) | 14.8 µM (inactive) | 4.06 µM (inactive) | 15.2 µM (inactive) | 16.3 µM (inactive) | 2.49 µM (inactive) | 16.8 µM (inactive) | – | – | 14.4 µM (inactive) | 17.4 µM (inactive) | 15.8 µM (inactive) | 19.1 µM (inactive) | 14.4 µM (inactive) | 18.7 µM (inactive) | 14.8 µM (inactive) | – | > 10 µM (inactive) | 15.2 µM (inactive) |
| CCO[C@]12CCC[C@H]1[C@@H]1C(=O)c3ccccc3C(=O)C1=C(C)O2 | > 100 µM (inactive) | > 100 µM (inactive) | 58.6 µM (inactive) | 33.5 µM (inactive) | > 100 µM (inactive) | > 100 µM (inactive) | > 100 µM (inactive) | > 100 µM (inactive) | > 100 µM (inactive) | – | 36.3 µM (inactive) | > 100 µM (inactive) | > 100 µM (inactive) | 98.2 µM (inactive) | 20.8 µM (inactive) | > 100 µM (inactive) | 76 µM (inactive) | 19.5 µM (inactive) | 40.1 µM (inactive) | – |
| O=C(Oc1c(I)ccccc1=O)c1ccc([N+](=O)[O-])cc1 | 14.9 µM (inactive) | 40.6 µM (inactive) | – | 22.5 µM (inactive) | 20.4 µM (inactive) | 30.8 µM (inactive) | 17.7 µM (inactive) | 33.3 µM (inactive) | 20.4 µM (inactive) | 26.1 µM (inactive) | 16.8 µM (inactive) | 12.3 µM (inactive) | 8.09 µM (inactive) | 42.4 µM (inactive) | 19.6 µM (inactive) | 21.6 µM (inactive) | 0.409 µM (active) | – | 22.3 µM (inactive) | 18.6 µM (inactive) |
| CC1CC(N2CCOCC2)=Nc2ccccc2N1Cc1ccccc1 (stereo unspecified) | 25.6 µM (inactive) | 73.8 µM (inactive) | – | > 100 µM (inactive) | > 100 µM (inactive) | > 100 µM (inactive) | 46.5 µM (inactive) | 58.1 µM (inactive) | > 100 µM (inactive) | > 100 µM (inactive) | > 100 µM (inactive) | 38.7 µM (inactive) | 49.1 µM (inactive) | > 100 µM (inactive) | 43.9 µM (inactive) | > 100 µM (inactive) | 20.5 µM (inactive) | – | 88.5 µM (inactive) | 66.2 µM (inactive) |
| O=[N+]([O-])c1ccc2c(c1)S(=O)(=O)N1Cc3ccccc3CCN21 | > 100 µM (inactive) | > 100 µM (inactive) | 59.3 µM (inactive) | > 100 µM (inactive) | 35 µM (inactive) | > 100 µM (inactive) | > 100 µM (inactive) | > 100 µM (inactive) | > 100 µM (inactive) | > 100 µM (inactive) | 45.1 µM (inactive) | > 100 µM (inactive) | > 100 µM (inactive) | > 100 µM (inactive) | > 100 µM (inactive) | > 100 µM (inactive) | > 100 µM (inactive) | – | > 100 µM (inactive) | – |
| C=C1c2cc3c(cc2CC12Cc1cc4c(cc1C2=O)CCC4)CCC3 (stereo unspecified) | > 100 µM (inactive) | > 100 µM (inactive) | > 100 µM (inactive) | > 100 µM (inactive) | > 100 µM (inactive) | > 100 µM (inactive) | > 100 µM (inactive) | > 100 µM (inactive) | – | > 100 µM (inactive) | > 100 µM (inactive) | > 100 µM (inactive) | > 100 µM (inactive) | > 100 µM (inactive) | > 100 µM (inactive) | > 100 µM (inactive) | > 100 µM (inactive) | > 100 µM (inactive) | > 100 µM (inactive) | – |
| CCOC(=O)C(=CNC(=S)N/N=C1\C(=O)Nc2ccccc21)C(=O)OCC | – | 48.2 µM (inactive) | 21.5 µM (inactive) | 41.9 µM (inactive) | > 100 µM (inactive) | 59.2 µM (inactive) | – | > 100 µM (inactive) | > 100 µM (inactive) | > 100 µM (inactive) | > 100 µM (inactive) | 84.3 µM (inactive) | > 100 µM (inactive) | > 100 µM (inactive) | > 100 µM (inactive) | > 100 µM (inactive) | 41.9 µM (inactive) | > 100 µM (inactive) | 89.9 µM (inactive) | – |
